Molecules are shown by their SMILES. pIC50: −log10 of the molar value.

The source of these data is patent US7534897B2 (Shionogi & Co., Ltd., priority 2002, dated 2009).

In series [1] the target is T1, human CRTH2-transfected K562 cells (Homo sapiens, UniProt Q9Y5Y4).
T1 construct: expressed in transfected cells; host or cells: K562 cells
T1 sequence (Q9Y5Y4 1-395): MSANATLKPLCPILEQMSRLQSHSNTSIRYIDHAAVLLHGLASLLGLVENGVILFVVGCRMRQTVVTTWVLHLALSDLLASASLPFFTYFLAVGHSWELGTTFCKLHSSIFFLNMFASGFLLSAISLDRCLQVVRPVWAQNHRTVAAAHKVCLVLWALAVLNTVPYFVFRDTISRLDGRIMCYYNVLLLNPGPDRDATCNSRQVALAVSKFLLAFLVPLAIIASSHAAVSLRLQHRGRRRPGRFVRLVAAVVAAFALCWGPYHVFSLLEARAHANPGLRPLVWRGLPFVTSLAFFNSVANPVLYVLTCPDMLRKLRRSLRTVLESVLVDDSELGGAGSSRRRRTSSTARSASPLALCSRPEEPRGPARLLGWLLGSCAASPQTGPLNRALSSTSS
Description: Antagonistic activity to CRTH2: calcium mobilization assay induced by PGD2. It is filed as cell-based. Particulars: compound at 1 μM, percent inhibition of PGD2-induced calcium mobilization. The method, then: Experiment 2 Evaluation of Antagonistic Activity to CRTH2
To evaluate the antagonistic activity of compounds against CRTH2, calcium mobilization assay induced by PGD2 was performed using CRTH2 transfectants.
The human CRTH2-transfected K562 cells were suspended at 2×10^6 cells/ml in assay buffer (10 mM HEPES buffer, pH 7.4, 0.1% Bovine serum albumin), and were incubated with Fura-2 AM (2 μM) for 60 min at room temperature. After washing cells were resuspended again with assay buffer, incubated at 37° C., and then treated with various concentrations of compounds for 2 min. The emitted fluorescence was measured on a calcium analyzer (CAF-110) after addition of PGD2.
In general terms: A change in cytosolic calcium serves as a functional read-out for many receptors and channels.

Another series concerns the target T2, CRTH2 (Homo sapiens, UniProt Q9Y5Y4).
T2 construct: expressed in transfected cells; host or cells: K562 cells (membrane fraction)
T2 sequence (Q9Y5Y4 1-395): T1 sequence (Q9Y5Y4 1-395)
Description: Binding activity to CRTH2 ([3H]PGD2 binding assay). Particulars: membrane fraction of CRTH2-transfected K562 cells, read-out: CRTH2 inhibitory activity IC50. On the procedure: Experiment 1 Binding Activity to CRTH2
The membrane fraction prepared with CRTH2-transfected K562 cells was used for a binding assay. To a binding-reaction solution (50 mM Tris/HCl, pH 7.4, 10 mM MgCl2) the membrane fraction (0.06 mg) and 3 nM [^3H]PGD2 (172 Ci/mmol) were added, and the mixture was reacted at room temperature for 60 min. After the reaction, the mixture was filtered through a glass fiber filter paper and washed several times with cooled physiological saline, then the radioactivity retained on the filter paper was measured. The specific-binding ratio was calculated by subtracting the non-specific binding ratio which is the radioactivity similarly measured in the presence of 10 μM PGD2 from the total binding.

A word on the melting point: it is the temperature, or range, at which the solid turns liquid. In general, pIC50 refers to −log10 of the IC50, conventionally taken in molar units. Compound `CN(C1CCc2c(c3ccccc3n2CC(=O)O)C1)S(=O)(=O)c1ccc(Cc2ccccc2)s1` (centres unmarked) [Ib-31] came in with a melting point of 138 to 140 °C. Also, the “antagonistic activity to CRTH2 (% INH)” value in series [1] was determined as 96 % INH. In addition, the pIC50 at CRTH2 is 7.23.
As to `CN(c1ccc2c(c1)c1c(n2CC(=O)O)CCCC1)S(=O)(=O)c1ccc(F)cc1` [Ih-2], the “antagonistic activity to CRTH2 (% INH)” value in series [1] is reported as 91 % INH.
As to `O=C(O)Cn1cc(CCN(Cc2ccccc2)S(=O)(=O)c2ccc(F)cc2)c2ccccc21` [Ia-51], the “antagonistic activity to CRTH2 (% INH)” value in series [1] stood at 91 % INH. The pIC50 on CRTH2 was 7.70.
As for `Cc1c(C)n(CC(=O)O)c2ccc(N(C)S(=O)(=O)c3ccc(F)cc3)cc12` [Ik-1], the melting point lay in the range of 165 to 179 °C. The negative-log IC50 (pIC50) at CRTH2 is 7.32.
The like results for `O=C(O)Cn1c2ccccc2c2cc(N(Cc3ccccc3)S(=O)(=O)c3ccc(F)cc3)ccc21` [Ie-8] were, in that order, 212 to 213 °C and 7.59.
The like results for `CC1CCc2c(c3cc(N(Cc4ccccc4)S(=O)(=O)c4ccc(F)cc4)ccc3n2CC(=O)O)C1` (centres unmarked) [Ih-6] were, in that order, 176 to 178 °C and 7.47.
`COc1ccc(CN(CCc2cn(CC(=O)O)c3ccccc23)S(=O)(=O)c2ccc(F)cc2)cc1` [Ia-62] displayed a melting point of 108 to 110 °C. For the same compound, at CRTH2, the negative logarithm of the IC50 (pIC50) is 7.31.
With `O=C(O)Cn1cc(C2CCCN(S(=O)(=O)c3ccc(F)cc3)C2)c2ccccc21` (centres unmarked) [Ic-6], the melting point is 189 to 194 °C (dec.). For the same compound, the “antagonistic activity to CRTH2 (% INH)” value in series [1] was determined as 100 % INH. The negative logarithm of the IC50 (pIC50) on CRTH2 is 8.35.
Compound `CCc1c(C)n(CC(=O)O)c2ccc(NS(=O)(=O)c3ccc(F)cc3)cc12` [Ik-3] came in with a melting point of 172 to 178 °C. Further, the pIC50 on CRTH2 was 7.29.
The like results for `Cc1c(C(C)C)c2cc(NS(=O)(=O)c3ccc(F)cc3)ccc2n1CC(=O)O` [Ik-4] were, in that order, 165 to 171 °C and 7.33.
Regarding `O=C(O)Cn1cc(CCNS(=O)(=O)c2ccc(F)cc2)c2cc(F)ccc21` [Ia-36], the “antagonistic activity to CRTH2 (% INH)” value in series [1] was determined as 89 % INH. Besides, the pIC50 at CRTH2 is 7.82.
